{"source": "patent US20230381171A1", "about": "“AUTOIMMUNE THERAPY” (LDN Pharma Limited, priority 2018, published 2023)", "format_in_all_cases": "in vivo, human", "key": {"[1]": {"assay": "Laboratory hormone levels of supplemented hormones (Example 3)", "method": "They were also prescribed Dehydroepiandrosterone (DHEA) 5 mg and Nature Throid thyroid hormone supplement 48.75 mg, progesterone 100 mg every night and testosterone cream 4 mg per day for low libido, and they were taking turmeric and krill oil. They started tapering off the plaquenil.\nDuring treatment estradiol 1.0 mg was started and also at this point they were off the plaquenil for 3 weeks totally. […] In addition, their Free T3 (triiodothyronine) was 3.1.\nDuring the treatment regimen, the administered DHEA was increased to 10 mg. The DHEA hormone was measured to be 203, Estradiol 117, progesterone 0.2, T3 3.3.\nThe patient's levels are at optimal levels where the T3 is in the upper range."}, "[2]": {"tested_on": "Hashimotos Thyroiditis, Fibromyalgia and Eosinophilic Esophaqitis", "assay": "Case report Example 1: patient treated with LDN and Vitamin D", "conditions": "LDN 1.5 to 4.5 mg daily, Vitamin D 5,000 then 7,000 units per day", "method": "Patient's symptoms included severe fatigue and muscle aches and pains over their body from the fibromyalgia. They were already taking Vitamin D at a daily dosage of 5,000 units and 130 mg of Nature Throid supplementation (a porcine product). For the first week of LDN treatment, the patient was administered daily dosages of 1.5 mg LDN and the 5,000 units of Vitamin D continued. During the second week, the daily dosage of LDN was increased to 3.0 mg. During the third week, the daily dosage of LDN was increased to 4.5 mg. […] Administration of Vitamin D was increased to 7,000 units per day.\nHer thyroid medication requirements were reduced. Her symptoms of fibromyalgia were resolved after addition of the naltrexone to the regimen."}, "[3]": {"tested_on": "Systemic Lupus Erythematosus (SLE) and Sjorgren's Disease", "assay": "Case report Example 3: patient treated with naltrexone and Vitamin D3", "conditions": "plaquenil 200 mg twice a day, before naltrexone"}, "[4]": {"tested_on": "Thyroiditis", "assay": "Case report Example 2: patient with thyroiditis treated with LDN and Vitamin D", "conditions": "5,000 units of Vitamin D per day, before naltrexone", "from_the_text": "This antibody activity then can interfere with the ability to incorporate iodine into the thyroid molecule, thus interfering with thyroid cell function."}, "[5]": {"assay": "Standard serum test of vitamin D level (Example 2)", "method": "The patient was receiving Synthroid as treatment for hypothyroidism, and they also presented with a rare form of macular degeneration requiring intra-ocular injections and interstitial cystitis. […] At the time they were not aware they had autoimmune thyroiditis.\nTheir dosage for Nature Throid was 97.5 mg twice a day for their thyroid supplementation. Their vitamin D level was 45 ng/ml, T3 was 4.1 and T4 (thyroxine, which converts into T3 in peripheral tissues) was 0.84. Their thyroid has stabilized as shown by these values; the patient's levels are at optimal levels where the T3 is in the upper range."}, "[6]": {"assay": "SpectraCell test of Vitamin D levels (Example 1)", "conditions": "after a month of treatment; Vitamin D 5,000 units daily; 55 is adequate", "source_text": "A sufficient amount can be determined by the skilled person by making a routine assessment of certain parameters of the patient to undergo the administration, such as, but not limited to, age, weight, gender, history of illness and/or other lifestyle factors including smoking, alcohol consumption and the level of exercise. Furthermore the skilled person can ascertain whether a dose has been sufficient to raise the vitamin D blood concentration to a sufficient amount by performing routine biochemical and analytical assays on a biological sample obtained from the subject. Preferably, the sample upon which said analysis is to be performed is blood. Examples of such well known assays include but are not limited to mass spectrometry, where the level of vitamin D or active metabolites thereof can be quantitatively measured. A sufficient amount is therefore an amount that achieves the desired blood vitamin D concentration. The desired concentration can be achieved after single administration or after repeated administrations of a dose of vitamin D or an active metabolite thereof. […]"}, "[7]": {"conditions": "testosterone cream 4 mg per day, later measurements"}}, "data": [{"compound": "C[C@]12CC[C@H](O)CC1=CC[C@@H]1[C@@H]2CC[C@]2(C)C(=O)CC[C@@H]12", "note": "[DHEA, Dehydroepiandrosterone]", "values": [{"measurement": "DHEA hormone level", "setting": "[1]; DHEA increased to 10 mg", "result": 203}, {"measurement": "DHEA hormone level", "setting": "[1]; last laboratory results", "result": 169}, {"measurement": "DHEA hormone level", "setting": "[1]; later measurements", "result": 142}]}, {"compound": "O=C1CC[C@@]2(O)[C@H]3Cc4ccc(O)c5c4[C@@]2(CCN3CC2CC2)[C@H]1O5", "note": "[naltrexone, morphinan-6-one,17-(cyclopropylmethyl)-4,5-epoxy-3,14-dihydroxy-(5a)]", "values": [{"measurement": "fibromyalgia symptoms", "setting": "[2]", "result": "resolved"}]}, {"compound": "CCN(CCO)CCCC(C)Nc1ccnc2cc(Cl)ccc12", "note": "(centres unmarked) [plaquenil]", "values": [{"measurement": "benefit on symptoms", "setting": "[3]", "result": "minimal benefit"}]}, {"compound": "C[C@]12CC[C@H]3[C@@H](CCC4=CC(=O)CC[C@@]43C)[C@@H]1CC[C@@H]2O", "note": "[testosterone]", "values": [{"measurement": "Free testosterone", "setting": "[1]; [7]", "result": 1.3}, {"measurement": "total testosterone", "setting": "[1]; [7]", "result": 19}]}, {"compound": "Vitamin D", "values": [{"measurement": "effect in regards to interstitial cystitis", "setting": "[4]", "result": "did not seem to have any significant effect"}, {"measurement": "vitamin D 25 OH level", "setting": "[5]; 5,000 units of vitamin D daily, standard serum test, deficient level", "result": 39}, {"measurement": "vitamin D level", "setting": "[5]; during LDN and Vitamin D treatment", "result": 45, "unit": "ng/mL"}, {"measurement": "Vitamin D levels (SpectraCell test)", "setting": "[6]", "result": 47}]}]}
